Data from ChEMBL document CHEMBL4138146, “A Schmidt rearrangement-mediated synthesis of novel tetrahydro-benzo[1,4]diazepin-5-ones as potential anticancer and antiprotozoal agents” (Eur J Med Chem, 2017).

Experiments:
Assay type in all cases: functional
NCI-H226 = assay: Growth inhibition of human NCI-H226 cells assessed as cell growth at 10 uM incubated for 48 hrs by sulforhodamine B assay relative to control; details: NCI-H226, 48 h, read-out: Activity
NCI/ADR-RES = assay: Growth inhibition of human NCI/ADR-RES cells assessed as cell growth at 10 uM incubated for 48 hrs by sulforhodamine B assay relative to control; details: read-out: Activity
SNB-75 = assay: Growth inhibition of human SNB75 cells assessed as cell growth at 10 uM incubated for 48 hrs by sulforhodamine B assay relative to control; details: SNB-75, 48 h, read-out: Activity
LOX IMVI = assay: Growth inhibition of human LOXIMVI cells assessed as cell growth at 10 uM incubated for 48 hrs by sulforhodamine B assay relative to control; details: read-out: Activity
CAKI-1 = assay: Growth inhibition of human Caki1 cells assessed as cell growth at 10 uM incubated for 48 hrs by sulforhodamine B assay relative to control; details: CAKI-1, 48 h, read-out: Activity
SF-268 = assay: Growth inhibition of human SF268 cells assessed as cell growth at 10 uM incubated for 48 hrs by sulforhodamine B assay relative to control; details: SF-268, 48 h, read-out: Activity
MDA-MB-435 = assay: Growth inhibition of human MDA-MB-435 cells assessed as cell growth at 10 uM incubated for 48 hrs by sulforhodamine B assay relative to control; details: MDA-MB-435, 48 h, read-out: Activity
COLO 205 = assay: Growth inhibition of human COLO205 cells assessed as cell growth at 10 uM incubated for 48 hrs by sulforhodamine B assay relative to control; details: COLO 205, 48 h, read-out: Activity
U-251 = assay: Growth inhibition of human U251 cells assessed as cell growth at 10 uM incubated for 48 hrs by sulforhodamine B assay relative to control; details: U-251, 48 h, read-out: Activity
SK-MEL-2 = assay: Growth inhibition of human SK-MEL-2 cells assessed as cell growth at 10 uM incubated for 48 hrs by sulforhodamine B assay relative to control; details: SK-MEL-2, 48 h, read-out: Activity
SK-OV-3 = assay: Growth inhibition of human SKOV3 cells assessed as cell growth at 10 uM incubated for 48 hrs by sulforhodamine B assay relative to control; details: SK-OV-3, 48 h, read-out: Activity
UO-31 = assay: Growth inhibition of human UO31 cells assessed as cell growth at 10 uM incubated for 48 hrs by sulforhodamine B assay relative to control; details: UO-31, 48 h, read-out: Activity
T47D = assay: Growth inhibition of human T47D cells assessed as cell growth at 10 uM incubated for 48 hrs by sulforhodamine B assay relative to control; details: read-out: Activity
PC-3 = assay: Growth inhibition of human PC3 cells assessed as cell growth at 10 uM incubated for 48 hrs by sulforhodamine B assay relative to control; details: PC-3, 48 h, read-out: Activity
NCI-H322M = assay: Growth inhibition of human NCI-H322M cells assessed as cell growth at 10 uM incubated for 48 hrs by sulforhodamine B assay relative to control; details: read-out: Activity
MDA-MB-231 = assay: Growth inhibition of human MDA-MB-231 cells assessed as cell growth at 10 uM incubated for 48 hrs by sulforhodamine B assay relative to control; details: MDA-MB-231, 48 h, read-out: Activity
Malme-3M = assay: Growth inhibition of human MALME-3M cells assessed as cell growth at 10 uM incubated for 48 hrs by sulforhodamine B assay relative to control; details: read-out: Activity
Hs-578T = assay: Growth inhibition of human Hs 578T cells assessed as cell growth at 10 uM incubated for 48 hrs by sulforhodamine B assay relative to control; details: read-out: Activity
M14 = assay: Growth inhibition of human M14 cells assessed as cell growth at 10 uM incubated for 48 hrs by sulforhodamine B assay relative to control; details: M14, 48 h, read-out: Activity
OVCAR-4 = assay: Growth inhibition of human OVCAR4 cells assessed as cell growth at 10 uM incubated for 48 hrs by sulforhodamine B assay relative to control; details: OVCAR-4, 48 h, read-out: Activity
ACHN = assay: Growth inhibition of human ACHN cells assessed as cell growth at 10 uM incubated for 48 hrs by sulforhodamine B assay relative to control; details: read-out: Activity
MDA-MB-468 = assay: Growth inhibition of human MDA-MB-468 cells assessed as cell growth at 10 uM incubated for 48 hrs by sulforhodamine B assay relative to control; details: MDA-MB-468, 48 h, read-out: Activity
DU-145 = assay: Growth inhibition of human DU145 cells assessed as cell growth at 10 uM incubated for 48 hrs by sulforhodamine B assay relative to control; details: DU-145, 48 h, read-out: Activity
RPMI-8226 = assay: Growth inhibition of human RPMI8226 cells assessed as cell growth at 10 uM incubated for 48 hrs by sulforhodamine B assay relative to control; details: RPMI-8226, 48 h, read-out: Activity
HOP-92 = assay: Growth inhibition of human HOP92 cells assessed as cell growth at 10 uM incubated for 48 hrs by sulforhodamine B assay relative to control; details: HOP-92, 48 h, read-out: Activity
OVCAR-3 = assay: Growth inhibition of human OVCAR3 cells assessed as cell growth at 10 uM incubated for 48 hrs by sulforhodamine B assay relative to control; details: OVCAR-3, 48 h, read-out: Activity
HOP-62 = assay: Growth inhibition of human HOP62 cells assessed as cell growth at 10 uM incubated for 48 hrs by sulforhodamine B assay relative to control; details: HOP-62, 48 h, read-out: Activity
SK-MEL-5 = assay: Growth inhibition of human SK-MEL-5 cells assessed as cell growth at 10 uM incubated for 48 hrs by sulforhodamine B assay relative to control; details: SK-MEL-5, 48 h, read-out: Activity
SK-MEL-28 = assay: Growth inhibition of human SK-MEL-28 cells assessed as cell growth at 10 uM incubated for 48 hrs by sulforhodamine B assay relative to control; details: SK-MEL-28, 48 h, read-out: Activity
NCI-H23 = assay: Growth inhibition of human NCI-H23 cells assessed as cell growth at 10 uM incubated for 48 hrs by sulforhodamine B assay relative to control; details: NCI-H23, 48 h, read-out: Activity
TK-10 = assay: Growth inhibition of human TK10 cells assessed as cell growth at 10 uM incubated for 48 hrs by sulforhodamine B assay relative to control; details: TK-10, 48 h, read-out: Activity
BT-549 = assay: Growth inhibition of human BT549 cells assessed as cell growth at 10 uM incubated for 48 hrs by sulforhodamine B assay relative to control; details: BT-549, 48 h, read-out: Activity
SN12C = assay: Growth inhibition of human SN12C cells assessed as cell growth at 10 uM incubated for 48 hrs by sulforhodamine B assay relative to control; details: read-out: Activity

Structure (SMILES) | growth at 10 µM (NCI-H226) [%] | growth at 10 µM (NCI/ADR-RES) [%] | growth at 10 µM (SNB-75) [%] | growth at 10 µM (LOX IMVI) [%] | growth at 10 µM (CAKI-1) [%] | growth at 10 µM (SF-268) [%] | growth at 10 µM (MDA-MB-435) [%] | growth at 10 µM (COLO 205) [%] | growth at 10 µM (U-251) [%] | growth at 10 µM (SK-MEL-2) [%] | growth at 10 µM (SK-OV-3) [%] | growth at 10 µM (UO-31) [%] | growth at 10 µM (T47D) [%] | growth at 10 µM (PC-3) [%] | growth at 10 µM (NCI-H322M) [%] | growth at 10 µM (MDA-MB-231) [%] | growth at 10 µM (Malme-3M) [%] | growth at 10 µM (Hs-578T) [%] | growth at 10 µM (M14) [%] | growth at 10 µM (OVCAR-4) [%] | also measured
O=C1NCC(c2cc3ccc4ccccc4c3[nH]c2=O)Nc2ccccc21 (stereo not drawn) | 103 | 99 | 107 | 90.6 | 85.7 | 77.8 | 106 | 108 | 102 | 92.2 | 99.9 | 105 | 85.7 | 88.8 | 111 | 65.3 | 96.9 | 93.9 | 102 | 106 | growth at 10 µM (ACHN): 109%; growth at 10 µM (MDA-MB-468): 116%; growth at 10 µM (DU-145): 77.3%; growth at 10 µM (RPMI-8226): 109%; growth at 10 µM (HOP-92): 99.5%; growth at 10 µM (OVCAR-3): 107%; growth at 10 µM (HOP-62): 93.1%; growth at 10 µM (SK-MEL-5): 99.2%; growth at 10 µM (SK-MEL-28): 104%; growth at 10 µM (NCI-H23): 102%; growth at 10 µM (TK-10): 107%; growth at 10 µM (BT-549): 93.1%; growth at 10 µM (SN12C): 79.3%
O=C1CC(c2cc3ccc4ccccc4c3[nH]c2=O)Nc2ccccc21 (stereo not drawn) | 92.5 | 108 | 102 | 84 | 86 | 96.8 | 109 | 86.7 | 87.6 | 96.2 | 98.8 | 95.4 | 93.1 | 102 | 108 | 69.3 | 84.7 | 77.3 | 96.4 | 87.8 | growth at 10 µM (ACHN): 106%; growth at 10 µM (MDA-MB-468): 91.2%; growth at 10 µM (DU-145): 84.3%; growth at 10 µM (RPMI-8226): 99.7%; growth at 10 µM (HOP-92): 104%; growth at 10 µM (OVCAR-3): 115%; growth at 10 µM (HOP-62): 91.1%; growth at 10 µM (SK-MEL-5): 98.9%; growth at 10 µM (SK-MEL-28): 106%; growth at 10 µM (NCI-H23): 93.6%; growth at 10 µM (TK-10): 116%; growth at 10 µM (BT-549): 69.4%; growth at 10 µM (SN12C): 90.7%
Cc1ccc2[nH]c(=O)c(C3CNC(=O)c4ccccc4N3)cc2c1 (stereo not drawn) | 109 | 108 | 97.4 | 96.8 | 92.1 | 99.5 | 108 | 107 | 99.5 | 110 | 110 | 84.3 | 116 | 98.5 | 110 | 114 | 109 | 105 | 103 | 108 | growth at 10 µM (ACHN): 103%; growth at 10 µM (MDA-MB-468): 110%; growth at 10 µM (DU-145): 106%; growth at 10 µM (RPMI-8226): 102%; growth at 10 µM (HOP-92): 110%; growth at 10 µM (OVCAR-3): 107%; growth at 10 µM (HOP-62): 97.1%; growth at 10 µM (SK-MEL-5): 98.6%; growth at 10 µM (SK-MEL-28): 108%; growth at 10 µM (NCI-H23): 97.1%; growth at 10 µM (TK-10): 104%; growth at 10 µM (BT-549): 99.4%; growth at 10 µM (SN12C): 99.7%
CCCCn1c(=O)c(C2CNC(=O)c3ccccc3N2)cc2ccccc21 (stereo not drawn) | 111 | 100 | 84 | 97.2 | 85.8 | 98.9 | 105 | 111 | 98 | 106 | 97.2 | 93.1 | 93.7 | 106 | 111 | 77.5 | 107 | 94.6 | 107 | 103 | growth at 10 µM (ACHN): 98.2%; growth at 10 µM (MDA-MB-468): 107%; growth at 10 µM (DU-145): 108%; growth at 10 µM (RPMI-8226): 109%; growth at 10 µM (HOP-92): 95.2%; growth at 10 µM (OVCAR-3): 99.8%; growth at 10 µM (HOP-62): 91.8%; growth at 10 µM (SK-MEL-5): 102%; growth at 10 µM (SK-MEL-28): 102%; growth at 10 µM (NCI-H23): 95%; growth at 10 µM (TK-10): 109%; growth at 10 µM (BT-549): 97.8%; growth at 10 µM (SN12C): 85.7%
O=C1CC(c2cc3ccccc3[nH]c2=O)Nc2ccccc21 (stereo not drawn) | 96.5 | 108 | 90.4 | 98.2 | 95.2 | 101 | 108 | 115 | 99.7 | 98.3 | 99.4 | 95.2 | 94.3 | 104 | 102 | 83.9 | 106 | 99.7 | 101 | 109 | growth at 10 µM (ACHN): 99.9%; growth at 10 µM (MDA-MB-468): 96.5%; growth at 10 µM (DU-145): 105%; growth at 10 µM (RPMI-8226): 107%; growth at 10 µM (HOP-92): 108%; growth at 10 µM (OVCAR-3): 113%; growth at 10 µM (HOP-62): 100%; growth at 10 µM (SK-MEL-5): 103%; growth at 10 µM (SK-MEL-28): 110%; growth at 10 µM (NCI-H23): 97.8%; growth at 10 µM (TK-10): 98%; growth at 10 µM (BT-549): 94.3%; growth at 10 µM (SN12C): 93.3%
O=C1NCC(c2cc3ccccc3[nH]c2=O)Nc2ccccc21 (stereo not drawn) | 98.4 | 111 | 99.6 | 98.5 | 88.1 | 99.9 | 107 | 107 | 102 | 100 | 89.9 | 76.8 | 91 | 93.2 | 100 | 97.9 | 96.8 | 99.4 | 101 | 104 | growth at 10 µM (ACHN): 99.7%; growth at 10 µM (MDA-MB-468): 97.5%; growth at 10 µM (DU-145): 111%; growth at 10 µM (RPMI-8226): 106%; growth at 10 µM (HOP-92): 104%; growth at 10 µM (OVCAR-3): 111%; growth at 10 µM (HOP-62): 90.6%; growth at 10 µM (SK-MEL-5): 97.2%; growth at 10 µM (SK-MEL-28): 103%; growth at 10 µM (NCI-H23): 97.4%; growth at 10 µM (TK-10): 87.8%; growth at 10 µM (BT-549): 96.3%; growth at 10 µM (SN12C): 99.7%
